Data published in patent US20190038556A1, “FORMULATIONS AND CARRIER SYSTEMS INCLUDING COMPOUND INTERACTIVE DOMAINS” (University of Pittsburgh - Of The Commonwealth System of …, priority 2012, published 2019).
Values belong to the molecule of their own block, whether it stands above or below them.

How the values were obtained:
[1] = Micelle-facilitated solubilization of JP4-039; format: physicochemical; conditions: at comparable molar ratios
Protocol: In the solubilization studies of FIG. 4, various amounts of tetra chain PEG5,000-lysyl-[lysyl-(α-Fmoc-ε-oleyol-lysine)2]2 were mixed with JP4-039 in CHCl3 followed by solvent evaporation, the drug-loaded micelles were prepared by hydration in saline. The amounts of solubilized JP4-030 were determined by OD448 measurements from supernatant.
Lipopeptides, amino acid derivatives or nitroxide compounds were first dissolved in chloroform. The solutions were aliquoted to a glass test tube, mixed well, then blown with a constant nitrogen stream to remove the bulk of the solvent. The residual solvent was removed by applying high vacuum for 2 hrs. To determine micelle-facilitated solubilization of JP4-039, various molar ratios of surfactant to drug were applied to make surfactant-drug mixture in water (final concentration of JP4-039 was 5 mg/mL). After at least 30 minutes, the samples were briefly centrifuged at 13,000 rpm. One half of the supernatants was recovered, to which an equal volume of ethanol was added to dissolve/disrupt micelle drug complexes. The amounts of drug in the samples were quantitated using OD448 nm.

[2] = system: rat red blood cells; test: Hemolysis assay; format: cell-based; conditions: 2 hrs at 37° C., 5 mM
Protocol: We also examined the hemolytic activity of plain micelles prepared from PEG-lipid and lipopeptide conjugates on rat red blood cells and compared the results to two widely used ethoxylated nonionic surfactants: Triton X-100 and Tween 80. In the studies of FIG. 6, rat red blood cells (1%) were incubated with surfactants at indicated concentrations for 2 hrs at 37° C. After such incubation, supernatants were carefully withdrawn, measured for at OD540 nm, and calculated based on OD value under a condition that total hemolysis occurred.
1(j). Hemolysis assay. Rat red blood cells (RBCs) were isolated from freshly collected rat blood with added anticoagulant by washing three times with 10 volumes of cold PBS (1500 rpm for 10 min). RBCs were then diluted to 2% w/v with ice cold DPBS and utilized immediately for the hemolysis assay. One mL of diluted RBC suspension was treated with various concentrations (0-5 mM) of PEG-lipopeptides, Tween 80, and Triton X-100, respectively, and then incubated at 37° C. in an incubator shaker for 2 h. The samples were centrifuged at 1500 rpm for 10 min at 4° C., and 100 μL of supernatant from each sample was transferred into a 96-well plate. The release of hemoglobin was determined by the absorbance at 540 nm using a micro-plate reader. […] Hemoglobin release was calculated as (ODsample−ODnegative control)/(ODpositive control−ODnegative control)×100%.

[3] = Solubilization of tested agents with multi-chain PEGylated micelle-forming surfactants (Table 1)
Excerpt: The exact mechanism for the protection of ECGC against oxygen in the form of complex is unknown.

[4] = Oxidation of ECGC in PBS on exposure to air; format: physicochemical; conditions: exposed to air, free 24 hrs, complex over a week
[5] = Particle size measurement by laser dynamic light scattering; format: physicochemical; conditions: agent formulated with multi-chain PEGylated micelle-forming surfactant
Protocol: 1(f). Particle size measurement. […] Samples were further diluted ten times in distilled water and sizes were measured by laser dynamic light scattering using a particle sizer (Zetasizer Nano ZS instrument, available from Malvern Instruments Ltd of Worcestershire, United Kingdom). Size measurement of emulsion particles were conducted using a Coulter N4 particle sizer after a 100-fold dilution in saline.

[6] = system: PC-3 human prostate cancer cell line; test: In vitro cytotoxicity (MTT), PC-3; format: cell-based; conditions: PC-3, 72 h, FIG. 14B
Protocol: (§1) The tumor-inhibitory efficacy of PEG-Fmoc/PTX was also investigated both in vitro and in vivo. In vitro cytotoxicity of PEG-Fmoc/PTX was evaluated in mouse metastatic breast cancer cell line 4T1.2, and two human prostate cancer cell lines, PC-3 and DU145. […] Without limitation to any mechanism, the increased cytotoxicity of PEG-Fmoc/PTX may, for example, be attributable to facilitated entry of PTX into tumor cells.
(§2) 2(b)(viii). In Vitro Cytotoxicity. Mouse metastatic breast cancer cell line 4T1.2, and two human prostate cancer cell lines PC-3 and DU145 were utilized to evaluate the in vitro cytotoxicity of PTX/PEG-Fmoc2. Cells were seeded in 96-well plates at 1000 (4T1.2), 2000 (DU145) and 3000 (PC-3) cells per well. […] Seventy-two h later, 20 μL of 3-(4,5-dimethylthiazol-2-yl)-2,5-diphenyltetrazoliumbromide (MTT, 5 mg/mL) was added into each well. Following incubation for 4 h, the medium was removed and 150 μL of DMSO was added to each well to solubilize the formazan crystal. The absorbance of each well was detected at 550 nm with a reference wavelength at 630 nm using a microplate reader, and cell viability was calculated based on the formula below. Untreated cells were included as a control.
(§3) % cytotoxicity=[1−(ODtreat−ODblank)/(ODcontrol−ODblank)]×100%

[7] = system: 4T1.2 mouse metastatic breast cancer cell line; test: In vitro cytotoxicity (MTT), 4T1.2; format: cell-based; conditions: 4T1.2, 72 h, FIG. 14A
Protocol: as §1, §2, §3

[8] = system: DU145 human prostate cancer cell line; test: In vitro cytotoxicity (MTT), DU145; format: cell-based; conditions: DU145, 72 h, FIG. 14C
Protocol: as §1, §2, §3

[9] = Size distribution of PTX/PEG-Fmoc2 mixed nanomicelles (DLS); format: physicochemical
Protocol: 2(b)(iv). Preparation and biophysical characterization of PTX/PEG-Fmoc2 mixed micelles. Thin-film hydration method was utilized for preparation of PTX/PEG-Fmoc2 mixed nanomicelles. PEG-Fmoc2 and PTX in chloroform were well mixed in a glass tube at designated molar ratios. A thin film of carrier/drug mixture was generated through removal of the organic solvent by a gentle stream of nitrogen. The trace amount of solvent was further removed via vacuum for 2 h. Then the film was hydrated and suspended in DPBS by vortex to obtain a clear solution of PTX/PEG-Fmoc2 mixed nanomicelles. Any non-entrapped drug was removed by filtration through 220 nm PVDF syringe filter.
(§4) The size distribution of PTX/PEG-Fmoc2 mixed nanomicelles was examined by dynamic light scattering (DLS) via a Malvern Zeta Nanosizer, and the morphology was observed by transmission electron microscopy (TEM) after negative staining. The CMC measurement was performed as reported before with pyrene as a fluorescence probe. To quantify PTX in the micelles, PTX was extracted by methanol, and detected by Waters Alliance 2695-2998 high-performance liquid chromatography (HPLC) system with a RP-18 column (250 mm×4.6 mm) equipped with a UV detector at 227 nm at room temperature. A mixture of methanol/water (80:20, v/v) was used as mobile phase at a flow rate at 0.8 mL/min. The drug loading capacity (DLC) and efficiency (DLE) were calculated as set forth above.

[10] = CMC measurement with pyrene as a fluorescence probe; format: physicochemical
Protocol: as §4

Molecule: methoxy PEG2,000-carbamoyl-1-palmitoyl-2-oleoyl-sn-glycero-3-phosphotidylethanolamine [compound 8]
Activity in forming a stable JP4-039-containing micelle solution [1]: inactive

Molecule: Triton X-100
Hemolysis [2]: 100%

solubility ([3]; tested agent itself, Table 1): freely | Soluble at ([3]; with multi-chain PEGylated micelle-forming surfactant): 5 mg/mL | Size +/− SD [5]: 89.9 +/− 12 nm
Molecule: O=C(O[C@@H]1Cc2c(O)cc(O)cc2O[C@@H]1c1cc(O)c(O)c(O)c1)c1cc(O)c(O)c(O)c1 [EGCG, epigallocatechin gallate]
Oxidation on storage [4]: readily oxidized

Molecule: PEG5K-lysyl-(α-Fmoc-ε-t-Boc-lysine)2 [PEG-Fmoc]
Cytotoxicity (tumor cell inhibition) [6]: did not show apparent toxicity | Cytotoxicity (tumor cell inhibition) [7]: did not show apparent toxicity | Cytotoxicity (tumor cell inhibition) [8]: did not show apparent toxicity | Micelle size in aqueous solution ([9]; carrier alone): 25˜30 nm | PDI ([9]; drug-free carrier 5 mg/mL): 0.488 | Particle size ([9]; drug-free carrier 5 mg/mL): 28.55 ± 0.27 nm | CMC [10]: 5.244 µM
